Here are results for four molecules from patent publication US5925528A, “Murine cell lines which over produce acidic fibroblast growth factor (aFGF) and method of using same” (Ohio State University Research Foundation, priority 1997, dated 1999).

“Also recorded” adds a separate entry of the source.

Experiment [1] relates to sense transfectants (Tr31-5-1, Tr33-1-2, Tr34-4-1 and Tr34-1-1). Nature of the experiment: Mitogenic response ([3H]thymidine) of sense transfectants compared with parental NIH/3T3 cells. Format: cell-based, mouse. The method, then:
(§1) FIG. 12 is a graph showing the mitogenic effects of different growth factors to various transfected cell lines. Cells were grown to confluence, changed to Dulbecco's modified Eagle medium containing 0.5% calf serum and grown for two more days. Different growth factors or calf serum was then added to the medium to stimulate cells to grow. [^3 H]thymidine was added 18 hours after addition of the mitogens and cells were incubated for another 6 hours. Bovine aFGF (b-aFGF) represents the truncated forms while human aFGF purified from Tr31-5-1 (rh-aFGF) represents the full-length protein. Cell lines, Tr31-5-1, 33-1-2, 34-1-1, and 34-4-1 are NIH/3T3 derivatives containing the aFGF cDNA construct in the positive orientation; whereas Tr31-11-1 contains aFGF cDNA in the anti-sense orientation.
(§2) Cells transfected with the EDNA coding for the full-length human aFGF were compared with the parental NIH/3T3 cells by determining their responses to various mitogens. […] Therefore, the lack of mitogenic response of Tr31-5-1 and Tr33-1-2 to rh-aFGF is not likely due to the trivial explanation of a defective mitogen. Thus, Tr31-5-1 and Tr33-1-2 may have lost some component of the pathway and these cell lines provide a unique means for elucidating the components responsive to the full-length aFGF.

Experiment [2] concerns newt KGFR. Put plainly: Binding assay (Scatchard plot) using KPTr2-2 cells and 125I-aFGF. The arrangement: species or system newt (Notophthalamus viridescens). The conditions noted are these: KPTr2-2 cells, read-out: Kd of newt KGFR toward human aFGF. The text has this:
(§3) Binding assays using KPTr2-2 and ^125 I-aFGF have been carried out. […] The Kd is slightly higher than the typical sub-nM range of mammalian KGFR. However, this may reflect the species difference since we used a human ligand for the newt receptor.

The test system of experiment [3] is Tr31-5-1 cells. Put plainly: Mitogenic response ([3H]thymidine) of Tr31-5-1 cells. Format: cell-based, mouse. The conditions noted are these: listed as full-length aFGF. The method, then:
as §1, §2

In experiment [4] the test system is Tr33-1-2 cells. Put plainly: Mitogenic response ([3H]thymidine) of Tr33-1-2 cells. Format: cell-based, mouse. To be noted: listed as full-length aFGF. The procedure:
as §1, §2

Experiment [5] deals with NIH/3T3 cells. Put plainly: Mitogenic response ([3H]thymidine) of NIH/3T3 cells. Type of experiment: cell-based, mouse. The method, then: as §1, §2
Experiment [6] concerns Swiss/3T3 cells. Nature of the experiment: Mitogenic response ([3H]thymidine) of Swiss/3T3 cells. Format: cell-based.
Experiment [7] concerns newt KGFR. Nature of the experiment: Competition assay using KPTr2-2 and 125I-aFGF. Format: binding, newt (Notophthalamus viridescens). To be noted: KPTr2-2 cells, compared with aFGF.
Excerpt: as §3

The test system of experiment [8] is newt KGFR. Put plainly: Crosslinking of 125I-aFGF to CHO-K1 cells over-expressing newt KGFR (KPTr2-2), competition with excess cold ligand. Format: binding, newt (Notophthalamus viridescens). The conditions noted are these: 500-fold molar excess of cold ligand, KPTr2-2 cells. The method, then:
CHO cells transfected with pBJ5 vector (lane 1) or with newt KGFR expression vector (lanes 2-4) were crosslinked with ^125 I-aFGF using 0.3 mM disuccinimidyl suberate (DSS). Excess amounts (500-fold) of aFGF (lane 3) or KGF (lane 4) were used to compete with ^125 I-aFGF. Crosslinked products were analyzed on a 7.5% SDS-polyacrylamide gel.
To characterize the newt FGFR EDNA functionally, the newt KGFR were expressed in CHO-K1 cells. The mammalian expression vector, pBJ5, which contains a chimeric promoter derived from HTLV-I and SV40, was used to express the newt KGFR and FGFR2 cDNA. […] The crosslinked product is absent in KPTr1-8, the CHO cells that were transfected with the pBJ5 vector alone. The crosslinked product thus appears to be specific. Similarly, a cell line over-expressing the human KGFR (T-1063-29-2 from S. A. Aaronson, NIH) was able to produce a somewhat smaller crosslinked product than the newt KGFR. Antibodies (both monoclonal and polyclonal) directed against a peptide from the carboxyl terminus of the newt FGFR2 are generated.

Usually Kd stands for the constant that tells how readily two partners part at equilibrium.

Take PDGF [reference compound]: in experiment [1] (sense transfectants Tr31-5-1, Tr33-1-2, Tr34-4-1 and Tr34-1-1), the “mitogenic response relative to parental NIH/3T3 cells” value is on record as “stronger mitogenic responses than NIH/3T3 cells”.

Turning to “human aFGF: human aFGF purified from Tr31-5-1 (rh-aFGF) represents the full-length protein”, in experiment [2], the Kd came to 1.3 nM. The mitogenic response result was “failed to give any mitogenic responses; also recorded: do not respond” in experiment [3], “failed to give any mitogenic responses; also recorded: do not respond” in experiment [4], “responded to the mitogenic stimulation” in experiment [5] and “responded to the mitogenic stimulation” in experiment [6]. Moreover, in experiment [1] (sense transfectants with the exception of Tr33-1-2), the “mitogenic response relative to parental NIH/3T3 cells” value is on record as “respond less strongly than the parental NIH/3T3 cells”.

Take “human recombinant bFGF: human recombinant basic fibroblast growth factor”: in experiment [7], the “competition with 125I-aFGF” value is listed as “does not compete as well as aFGF”.

B1: human recombinant KGF: human recombinant keratinocyte growth factor (protein, UniProt P21781 32-194, looked up)
Fibroblast growth factor 7: CNDMTPEQMATNVNCSSPERHTRSYDYMEGGDIRVRRLFCRTQWYLRIDKRGKVKGTQEMKNNYNIMEIRTVAVGIVAIKGVESEFYLAMNKEGKLYAKKECNEDCNFKELILENHYNTYASAKWTHNGGEMFVALNQKGIPVRGKKTKKEQKTAHFLPMAIT
For B1, the “competition of the 150 kDa crosslinked product” value in experiment [8] was “successfully competed off”.
